Several values for one entry are separate records, joined by “and”; a condition that tells them apart may be missing. Equal entries are not always repeated. Inconclusive results and toxic doses are left out.
Test system: BDF1 mice, P388 leukemia ip, median survival T/C
Experiment: NCI In Vivo Anticancer Drug Screen. Data for tumor model P388 Leukemia (intraperitoneal) in B6D2F1 (BDF1) mice
Conditions: endpoint: median survival time, higher = longer survival
Outline: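 Reported as T/C, where T is the survival measurement in dosed animals and C the same measurement in vehicle controls.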

[1] = dose: 50.0 mg/kg/injection, schedule: Q01DX009 (ip), vehicle: saline with Tween-80
[2] = dose: 100.0 mg/kg/injection, schedule: Q01DX009 (ip), vehicle: saline with Tween-80
[3] = dose: 200.0 mg/kg/injection, schedule: Q01DX009 (ip), vehicle: saline with Tween-80
[4] = dose: 12.5 mg/kg/injection, schedule: Q01DX009 (ip), vehicle: saline with Tween-80
[5] = dose: 25.0 mg/kg/injection, schedule: Q01DX009 (ip), vehicle: saline with Tween-80
[6] = dose: 100.0 mg/kg/injection, schedule: Q04DX003 (ip), vehicle: saline with Tween-80
[7] = dose: 100.0 mg/kg/injection, schedule: Q04DX003 (ip), vehicle: saline sonified
[8] = dose: 200.0 mg/kg/injection, schedule: Q04DX003 (ip), vehicle: saline sonified

c1ccc(P(OC2CCCCC2)OC2CCCCC2)cc1
T/C [1]: 109 % of control
T/C [2]: 109 % of control
T/C [3]: 110 % of control

C=C(Cl)CSCCS
T/C (dose: 25.0 mg/kg/injection, schedule: Q01DX009 (ip), vehicle: acetone): 104 % of control
T/C (dose: 50.0 mg/kg/injection, schedule: Q01DX009 (ip), vehicle: acetone): 104 % of control

O=C(O)CS(=O)(=O)c1ccccc1
T/C (dose: 25.0 mg/kg/injection, schedule: Q04DX003 (ip), vehicle: saline): 109 % of control
T/C (dose: 50.0 mg/kg/injection, schedule: Q01DX001 (ip), vehicle: other): 95 % of control
T/C (dose: 50.0 mg/kg/injection, schedule: Q01DX009 (ip), vehicle: saline): 108 % of control
T/C (dose: 50.0 mg/kg/injection, schedule: Q04DX003 (ip), vehicle: saline): 109 % of control
T/C (dose: 100.0 mg/kg/injection, schedule: Q01DX001 (ip), vehicle: other): 100 % of control
T/C (dose: 100.0 mg/kg/injection, schedule: Q01DX009 (ip), vehicle: saline): 120 % of control
T/C (dose: 100.0 mg/kg/injection, schedule: Q04DX003 (ip), vehicle: saline): 100 % of control
T/C (dose: 200.0 mg/kg/injection, schedule: Q01DX009 (ip), vehicle: saline): 108 % of control

Nc1ncn(C2CC(O)C(CO)O2)c(=O)n1 (configuration not stated)
T/C (dose: 0.03 mg/kg/injection, schedule: Q01DX009 (ip), vehicle: saline): 119 % of control
T/C (dose: 0.05 mg/kg/injection, schedule: Q01DX009 (ip), vehicle: saline): 121 % of control
T/C (dose: 0.1 mg/kg/injection, schedule: Q01DX009 (ip), vehicle: Klucel (hydroxypropylcellulose) (HPC)): 190 % of control
T/C (dose: 0.2 mg/kg/injection, schedule: Q01DX009 (ip), vehicle: Klucel (hydroxypropylcellulose) (HPC)): 160 % of control and 206 % of control
T/C (dose: 0.4 mg/kg/injection, schedule: Q01DX009 (ip), vehicle: Klucel (hydroxypropylcellulose) (HPC)): 175 % of control and 190 % of control
T/C (dose: 0.4 mg/kg/injection, schedule: Q01DX009 (ip), vehicle: saline): 150 % of control
T/C (dose: 0.8 mg/kg/injection, schedule: Q01DX009 (ip), vehicle: Klucel (hydroxypropylcellulose) (HPC)): 109 % of control and 212 % of control
T/C (dose: 0.8 mg/kg/injection, schedule: Q01DX009 (ip), vehicle: saline): 188 % of control
T/C (dose: 1.56 mg/kg/injection, schedule: Q01DX009 (ip), vehicle: saline): 106 % of control
T/C (dose: 3.12 mg/kg/injection, schedule: Q01DX009 (ip), vehicle: saline): 94 % of control
T/C (dose: 3.12 mg/kg/injection, schedule: Q04DX003 (ip), vehicle: saline): 235 % of control
T/C (dose: 6.25 mg/kg/injection, schedule: Q01DX009 (ip), vehicle: saline): 90 % of control
T/C (dose: 6.25 mg/kg/injection, schedule: Q04DX003 (ip), vehicle: saline): 265 % of control
T/C (dose: 12.5 mg/kg/injection, schedule: Q04DX003 (ip), vehicle: saline): 160 % of control

CCCCCCCCCCOP(=S)(N1CC1)N1CC1
T/C [4]: 108 % of control
T/C (dose: 13.0 mg/kg/injection, schedule: Q04DX003 (ip), vehicle: saline with Tween-80): 113 % of control
T/C (dose: 20.0 mg/kg/injection, schedule: Q04DX003 (ip), vehicle: saline with Tween-80): 152 % of control
T/C [5]: 245 % of control
T/C (dose: 33.0 mg/kg/injection, schedule: Q04DX003 (ip), vehicle: saline with Tween-80): 169 % of control
T/C (dose: 44.0 mg/kg/injection, schedule: Q04DX003 (ip), vehicle: saline with Tween-80): 195 % of control
T/C [1]: 183 % of control
T/C (dose: 50.0 mg/kg/injection, schedule: Q04DX003 (ip), vehicle: saline with Tween-80): 226 % of control
T/C (dose: 67.0 mg/kg/injection, schedule: Q04DX003 (ip), vehicle: saline with Tween-80): 272 % of control
T/C (dose: 75.0 mg/kg/injection, schedule: Q04DX003 (ip), vehicle: saline with Tween-80): 243 % of control
T/C [6]: 272 % of control
T/C (dose: 125.0 mg/kg/injection, schedule: Q04DX003 (ip), vehicle: saline with Tween-80): 165 % of control
T/C (dose: 150.0 mg/kg/injection, schedule: Q04DX003 (ip), vehicle: saline with Tween-80): 272 % of control

Cc1ccc(S[Si](Sc2ccc(C)cc2)(Sc2ccc(C)cc2)Sc2ccc(C)cc2)cc1
T/C (dose: 200.0 mg/kg/injection, schedule: Q04DX002 (ip), vehicle: saline with Tween-80): 92 % of control
T/C (dose: 400.0 mg/kg/injection, schedule: Q04DX002 (ip), vehicle: saline with Tween-80): 100 % of control

Cc1ccn(C(=O)CC#N)n1
T/C (dose: 75.0 mg/kg/injection, schedule: Q01DX009 (ip), vehicle: saline with Tween-80): 91 % of control
T/C (dose: 150.0 mg/kg/injection, schedule: Q01DX009 (ip), vehicle: saline with Tween-80): 97 % of control
T/C (dose: 300.0 mg/kg/injection, schedule: Q01DX009 (ip), vehicle: saline with Tween-80): 92 % of control

C=CCn1c2ccccc2c2cc3cnccc3c(C)c21
T/C (dose: 50.0 mg/kg/injection, schedule: Q04DX003 (ip), vehicle: saline sonified): 95 % of control
T/C [7]: 90 % of control
T/C [8]: 95 % of control

CCOC(Cn1ccc(=O)[nH]c1=O)OCC
T/C [7]: 100 % of control
T/C [8]: 104 % of control
T/C (dose: 400.0 mg/kg/injection, schedule: Q04DX003 (ip), vehicle: saline sonified): 109 % of control

C=CCOCC(O)CN(CCCC)CCCC (configuration not stated)
T/C [4]: 95 % of control
T/C [5]: 95 % of control
T/C [1]: 105 % of control

COC(=O)C1=C(C)NC(C)=C(C(=O)OC)C1C(C)SC#N (configuration not stated)
T/C [1]: 107 % of control
T/C [2]: 109 % of control
T/C [3]: 97 % of control

O=C(CC(NC(=O)OCc1ccccc1)C(=O)O)OCc1ccccc1 (configuration not stated)
T/C (dose: 50.0 mg/kg/injection, schedule: Q01DX009 (ip), vehicle: Klucel (hydroxypropylcellulose) (HPC)): 122 % of control
T/C (dose: 100.0 mg/kg/injection, schedule: Q01DX009 (ip), vehicle: Klucel (hydroxypropylcellulose) (HPC)): 111 % of control
T/C [6]: 104 % of control
T/C (dose: 200.0 mg/kg/injection, schedule: Q01DX009 (ip), vehicle: Klucel (hydroxypropylcellulose) (HPC)): 111 % of control
T/C (dose: 200.0 mg/kg/injection, schedule: Q04DX003 (ip), vehicle: saline with Tween-80): 100 % of control
T/C (dose: 264.0 mg/kg/injection, schedule: Q04DX003 (ip), vehicle: saline with Tween-80): 100 % of control
T/C (dose: 400.0 mg/kg/injection, schedule: Q01DX009 (ip), vehicle: Klucel (hydroxypropylcellulose) (HPC)): 94 % of control
T/C (dose: 400.0 mg/kg/injection, schedule: Q04DX003 (ip), vehicle: saline with Tween-80): 100 % of control and 109 % of control

CC[C@H]1OC(=O)[C@H](C)[C@@H](OC2CC(C)(OC)C(OC(=O)CCCC(=O)O)C(C)O2)[C@H](C)[C@@H](OC2OC(C)CC(N(C)C)C2O)[C@](C)(O)C[C@@H](C)C(=O)[C@H](C)[C@@H](O)[C@]1(C)O (some centres not stated)
T/C (dose: 7.5 mg/kg/injection, schedule: Q01DX009 (ip), vehicle: Klucel (hydroxypropylcellulose) (HPC)): 111 % of control
T/C (dose: 15.0 mg/kg/injection, schedule: Q01DX009 (ip), vehicle: Klucel (hydroxypropylcellulose) (HPC)): 101 % of control
T/C (dose: 30.0 mg/kg/injection, schedule: Q01DX009 (ip), vehicle: Klucel (hydroxypropylcellulose) (HPC)): 97 % of control
T/C (dose: 60.0 mg/kg/injection, schedule: Q01DX009 (ip), vehicle: Klucel (hydroxypropylcellulose) (HPC)): 111 % of control

CNC(=N)c1ccc(NC(=N)c2ccc(NC(=O)Nc3ccc(C(=N)Nc4ccc(C(=N)NC)cc4)cc3)cc2)cc1
T/C (dose: 6.0 mg/kg/injection, schedule: Q01DX009 (ip), vehicle: saline with Tween-80): 216 % of control
T/C (dose: 8.0 mg/kg/injection, schedule: Q01DX009 (ip), vehicle: saline with Tween-80): 172 % of control and 214 % of control
T/C (dose: 12.0 mg/kg/injection, schedule: Q01DX009 (ip), vehicle: saline with Tween-80): 241 % of control and 204 % of control and 214 % of control
T/C (dose: 12.5 mg/kg/injection, schedule: Q04DX003 (ip), vehicle: saline with Tween-80): 122 % of control

CO[C@@H]([CH2][Hg][S]C#N)[C@@H]([CH2][Hg][S]C#N)OC
T/C (dose: 6.25 mg/kg/injection, schedule: Q01DX009 (ip), vehicle: other): 110 % of control
T/C (dose: 12.5 mg/kg/injection, schedule: Q01DX009 (ip), vehicle: other): 120 % of control
T/C (dose: 25.0 mg/kg/injection, schedule: Q01DX009 (ip), vehicle: other): 100 % of control and 109 % of control
T/C (dose: 25.0 mg/kg/injection, schedule: Q04DX003 (ip), vehicle: other): 100 % of control
T/C (dose: 50.0 mg/kg/injection, schedule: Q04DX003 (ip), vehicle: other): 103 % of control
T/C [7]: 90 % of control

COc1cccc(CC2c3ccccc3Nc3ccccc32)c1
T/C (dose: 100.0 mg/kg/injection, schedule: Q01DX001 (ip), vehicle: saline with Tween-80): 88 % of control
T/C (dose: 200.0 mg/kg/injection, schedule: Q01DX001 (ip), vehicle: saline with Tween-80): 87 % of control
T/C (dose: 400.0 mg/kg/injection, schedule: Q01DX001 (ip), vehicle: saline with Tween-80): 89 % of control

— PubChem BioAssay AID328 (DTP/NCI, 2004)
